The text below walks through data of ChEMBL document CHEMBL3351578, “Discovery and pharmacological profile of new hydrophilic 5-HT(4) receptor antagonists” (Bioorg Med Chem Lett, 2014).

Usually pKb stands for the Kb on a negative log10 scale, so that one unit is a factor of ten. Broadly, the Ki is the equilibrium dissociation constant of an inhibitor or competing ligand from its target. Usually logD stands for lipophilicity at a set pH, counting ionised and neutral species. What is called IC50 is the concentration that inhibits the measured activity by half. The term Tmax denotes the time at which the peak concentration occurs. A word on the bioavailability: it is the share of a dose that reaches the circulation, judged against a reference dose that is usually intravenous. A higher bioavailability goes with much systemic uptake.

Data set [1] addresses T1, 5-hydroxytryptamine receptor 4 (Homo sapiens, UniProt Q13639). The experiment in a line: Antagonist activity against human 5HT4b receptor expressed in HEK293 cells assessed as reduction in 5-HT-stimulated adenylyl cyclase activity. The data set is classed as functional, cell-based.
Data set [2] has as its target T1, 5-hydroxytryptamine receptor 4. The experiment in a line: Displacement of [3H]GR113808 from human 5HT4b receptor expressed in HEK293 cell membranes. For orientation: In a radioligand displacement assay an active substance lowers the binding of a labelled ligand.
A short description of data set [3]: Lipophilicity, log D of the compound at pH 7.4. As to conditions: buffer. It counts as physicochemical.
The target of data set [4] is Voltage-gated inwardly rectifying potassium channel KCNH2 (Homo sapiens, UniProt Q12809). The experiment in a line: Inhibition of human ERG expressed in HEK293 cells assessed as reduction in channel tail current by patch clamp method. The data set is classed as cell-based. In general terms: In patch-clamp work, channel activity is measured electrically.
The nature of data set [5]: Elimination half life in Sprague-Dawley rat at 10 mg/kg, po or 1 mg/kg, iv after 30 mins to 6 hrs by LC/MS/MS method. It counts as ADME, organism-based. The note with it: in vivo, read-out: beta t1/2.
The nature of data set [6]: Tmax in Sprague-Dawley rat at 10 mg/kg, po or 1 mg/kg, iv after 30 mins to 6 hrs by LC/MS/MS method. It counts as ADME, organism-based. The note with it: in vivo.
Data set [7] in a line: Oral bioavailability in Sprague-Dawley rat at 10 mg/kg after 30 mins to 6 hrs by LC/MS/MS method. The note with it: in vivo. It counts as ADME, organism-based.

T1 sequence (Q13639 whole entry): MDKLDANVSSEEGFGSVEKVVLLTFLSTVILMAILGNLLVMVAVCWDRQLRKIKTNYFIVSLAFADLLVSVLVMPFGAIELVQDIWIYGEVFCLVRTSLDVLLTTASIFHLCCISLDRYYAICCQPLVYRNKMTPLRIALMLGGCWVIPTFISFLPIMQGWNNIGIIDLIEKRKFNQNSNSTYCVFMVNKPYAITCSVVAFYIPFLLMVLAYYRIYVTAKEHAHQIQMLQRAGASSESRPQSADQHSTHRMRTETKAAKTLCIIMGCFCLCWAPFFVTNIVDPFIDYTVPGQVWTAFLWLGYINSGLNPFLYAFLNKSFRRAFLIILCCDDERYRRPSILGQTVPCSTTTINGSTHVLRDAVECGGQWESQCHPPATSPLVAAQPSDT
Voltage-gated inwardly rectifying potassium channel KCNH2, sequence (Q12809 whole entry): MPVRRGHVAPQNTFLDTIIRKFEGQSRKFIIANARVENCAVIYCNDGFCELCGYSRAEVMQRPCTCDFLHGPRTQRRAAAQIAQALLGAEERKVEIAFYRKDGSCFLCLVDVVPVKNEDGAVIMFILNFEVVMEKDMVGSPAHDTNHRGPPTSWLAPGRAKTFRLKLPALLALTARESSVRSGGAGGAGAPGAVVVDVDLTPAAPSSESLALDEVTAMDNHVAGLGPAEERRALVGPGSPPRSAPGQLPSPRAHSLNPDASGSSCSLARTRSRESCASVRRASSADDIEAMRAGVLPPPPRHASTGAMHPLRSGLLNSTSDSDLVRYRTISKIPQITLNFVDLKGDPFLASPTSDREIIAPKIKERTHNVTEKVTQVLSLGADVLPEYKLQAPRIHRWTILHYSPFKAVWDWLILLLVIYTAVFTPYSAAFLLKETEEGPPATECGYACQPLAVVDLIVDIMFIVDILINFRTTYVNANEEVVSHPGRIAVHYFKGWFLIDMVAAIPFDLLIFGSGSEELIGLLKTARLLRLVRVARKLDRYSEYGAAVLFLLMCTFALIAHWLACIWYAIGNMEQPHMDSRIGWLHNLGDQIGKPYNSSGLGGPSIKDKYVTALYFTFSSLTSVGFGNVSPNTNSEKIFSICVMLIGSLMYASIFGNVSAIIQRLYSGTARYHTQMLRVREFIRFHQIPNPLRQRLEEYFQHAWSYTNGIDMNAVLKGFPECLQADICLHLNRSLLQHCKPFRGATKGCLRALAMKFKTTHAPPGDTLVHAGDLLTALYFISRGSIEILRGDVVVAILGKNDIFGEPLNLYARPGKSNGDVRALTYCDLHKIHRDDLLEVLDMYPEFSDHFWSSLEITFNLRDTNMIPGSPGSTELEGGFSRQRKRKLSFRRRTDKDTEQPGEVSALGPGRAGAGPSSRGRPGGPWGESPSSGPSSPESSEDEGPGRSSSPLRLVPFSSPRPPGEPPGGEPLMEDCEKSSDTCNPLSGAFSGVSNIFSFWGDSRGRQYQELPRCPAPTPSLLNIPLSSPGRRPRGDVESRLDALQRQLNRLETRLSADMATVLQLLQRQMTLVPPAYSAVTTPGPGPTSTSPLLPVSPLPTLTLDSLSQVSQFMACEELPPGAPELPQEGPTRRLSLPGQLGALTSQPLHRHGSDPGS

Take `CC(C(=O)O)c1ccc(CN2CCC(COC(=O)c3c4n(c5ccccc35)CCCO4)CC2)cc1` (stereo not given): in data set [1], the pKb came out at 8.8. Further, in data set [2], the Ki was 0.316 nM. Also, the logD in data set [3] amounted to 1.1. Besides, the IC50 in data set [4] amounted to 25 µM.

On to `O=C(NCC1CCN(Cc2ccc(NS(=O)(=O)C3CCCCC3)cc2)CC1)c1c2n(c3ccccc13)CCCO2`, for which, in data set [1], the pKb came to 8. In data set [2], this compound had a Ki of 0.2 nM. This compound had a logD in data set [3] of 2.7.

As for `O=C(OCC1CCN(CC2C3CC4C2C4C3C(=O)O)CC1)c1c2n(c3ccccc13)CCCO2` (stereo not given), the pKb in data set [1] came to 8.4. The compound further had a Ki in data set [2] of 1.58 nM. Also, in data set [3], the logD is 0.7.

Consider `CC(C)CS(=O)(=O)Nc1ccc(CN2CCC(CNC(=O)c3c4n(c5ccccc35)CCCO4)CC2)cc1`, for which the pKb in data set [1] was 9.7. Moreover, the Ki in data set [2] was 0.0501 nM. Moreover, the pH-dependent lipophilicity (logD) in data set [3] amounted to 2.2.

Consider `O=C(OCC1CCN(CC(O)CO)CC1)c1c2n(c3ccccc13)CCCO2` (stereo not given), for which the pKb in data set [1] is 9.1. Further, the Ki in data set [2] was 0.0794 nM. Moreover, the half-life in data set [5] was 150 min. Besides, the Tmax in data set [6] was 2.42 h. Also, the logD in data set [3] came to 0.2. Further, in data set [4], the IC50 turned out to be 81 µM. For the same compound, in data set [7], the bioavailability worked out at 10.3%.

Regarding `CS(=O)(=O)Nc1ccc(CN2CCC(CNC(=O)c3cccc4c3OCCO4)CC2)cc1`, the negative logarithm of the Kb (pKb) in data set [1] was found to be 8.3. The compound also had a Ki in data set [2] of 0.2 nM. In data set [3], this compound yielded a logD of 0.5.

`CCCCS(=O)(=O)Nc1ccc(CN2CCC(CNC(=O)c3c4n(c5ccccc35)CCCO4)CC2)cc1`: the pKb in data set [1] was determined as 9.7. This compound also showed a Ki in data set [2] of 1 nM. For the same compound, the logD in data set [3] came to 2.2.

As to `O=C(NCC1CCN(Cc2ccc(NS(=O)(=O)C3CCCCC3)cc2)CC1)c1c[nH]c2ccccc12`, the affinity in data set [2], expressed as Ki, was 501 nM. In data set [3], this compound displayed a logD of 0.5.

For the compound `CCCCN1CCC(CNC(=O)c2c3n(c4ccccc24)CCCO3)CC1` [PIBOSEROD], in data set [1], the pKb is 10.5. The Ki in data set [2] is 0.398 nM.

Turning to `CC(C)CS(=O)(=O)Nc1ccc(CN2CCC(CNC(=O)c3cccc4c3OCCO4)CC2)cc1`, the pKb in data set [1] is 8. In addition, in data set [2], the Ki is 0.2 nM. The compound further registered a logD in data set [3] of 1.8.

Regarding `Cn1cc(C(=O)OCC2CCN(CCNS(C)(=O)=O)CC2)c2ccccc21`, the pKb in data set [1] worked out at 10.1.

On to `CCCCS(=O)(=O)Nc1ccc(CN2CCC(CNC(=O)c3cccc4c3OCCO4)CC2)cc1`, for which the pKb in data set [1] was 8. For the same compound, the Ki in data set [2] was 0.251 nM. Besides, in data set [3], the logD stood at 1.8.

In the case of `CS(=O)(=O)Nc1ccc(CN2CCC(CNC(=O)c3c4n(c5ccccc35)CCCO4)CC2)cc1`, the pKb in data set [1] amounted to 8.3. In addition, the inhibitory constant (Ki) in data set [2] was 0.2 nM. The compound also showed a logD in data set [3] of 1.

Consider `O=C(NCC1CCN(Cc2ccc(NS(=O)(=O)C3CCCCC3)cc2)CC1)c1cccc2c1OCCO2`, for which, in data set [1], the pKb worked out at 7.6. The same compound had a Ki in data set [2] of 1.26 nM. Besides, the logD in data set [3] came out at 2.5.

`O=C(NCC1CCN(Cc2ccc(NS(=O)(=O)Cc3ccccc3)cc2)CC1)c1c[nH]c2ccccc12` had a Ki in data set [2] of 1000 nM. Further, in data set [3], the logD came out at 1.2.
